This is an account of results in patent US20060167057A1, “Compounds for the treatment of CNS and amyloid associated diseases” (priority 2004, published 2006).

The target of the first experiment is Aβ40 (Homo sapiens, UniProt P05067). Kind of experiment: Electrospray MS assay for binding to Aβ40. To be noted: 100 μM compound, 20 μM Aβ40, pH 7.4. Further details: key: +++ = Strong (70 and higher % of free peptide); ++ = Moderate (50-70% of free peptide); + = Weak (25-50% of free peptide); 0 = None. From the text: (§1) The ability of a therapeutic compound of the invention to inhibit an interaction between an amyloidogenic protein and a glycoprotein or proteoglycan constituent of a basement membrane can be assessed by an in vitro binding assay, such as that described in U.S. Pat. No. 5,164,295, the contents of which are hereby incorporated by reference. Alternatively, the ability of a compound to bind to an amyloidogenic protein or to inhibit the binding of a basement membrane constituent (e.g. HSPG) to an amyloidogenic protein (e.g. Aβ) can be measured using a mass spectrometry assay where soluble protein, e.g Aβ, IAPP, β2M is incubated with the compound. A compound which binds to, e.g Aβ, will induce a change in the mass spectrum of the protein. Exemplary protocols for a mass spectrometry assay employing Aβ and IAPP can be found in the Examples, the results of which are provided in Table 5. The protocol can readily be modified to adjust the sensitivity of the data, e.g., by adjusting the amount of protein and/or compound employed. Thus, e.g., binding might be detected for test compounds noted as not having detectable binding employing less sensitive test protocols.
Sequence of Aβ40 (P05067 672-711 limits assumed): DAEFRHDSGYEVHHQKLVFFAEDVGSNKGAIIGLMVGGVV
The binding ability between the compounds synthesized in Example 4 and Aβ40 in an aqueous solution is tested. The binding ability is attributed semi-quantitatively from the intensities of peptide-compound complex peaks observed in the Electrospray Mass Spectrum.
In the MS assay for Aβ40, samples are prepared as aqueous solutions adding 20% ethanol if necessary to solubilize in water. The stock solution of the peptide contains 50 μm Aβ40. In a typical experiment, 100 μM of an exemplary compound as prepared in Example 4 and 20 μM of solubilized Aβ40 are used. The ratio of the compound: peptide is 5:1. The pH value of each sample is adjusted to 7.4 (±0.2) by addition of 0.1% aqueous sodium hydroxide. The solutions are then analyzed by electrospray ionization mass spectrometry using a Waters ZQ 4000 mass spectrometer. Samples are introduced by direct infusion at a flow-rate of 25 μL/min within 2 hr. after sample preparation. The source temperature is kept at 70° C. and the cone voltage is 20 V for all the analysis. Data are processed using Masslynx 3.5 software. Aβ 1-40 (M.W.=4329) alone at 20 μM is analyzed at pH 7.32 as a control. Sodium clusters, which are typical of this system at +3 and +4 at m/z […] regions, may be observed. The MS assay gives data on the ability of compounds to bind to soluble Aβ, whereas the ThT, EM and CD assays give data on inhibition of fibrillogenesis.
In Table 7, a blank box means that a value was not determined for that compound in that assay.
In the case of `COc1ccc(-n2nnnc2SCc2cccc(C[C@H](N)C(=O)O)c2)cc1` [drawing 487], the “MS Results (Aβ 1-40 binding)” value was “+ (+ = Weak (25-50% of free peptide))”.

`N[C@@H](Cc1cccc(CSc2nnnn2-c2ccccc2)c1)C(=O)O` [drawing 488]: the “MS Results (Aβ 1-40 binding)” value is given as “+ (+ = Weak (25-50% of free peptide))”.

As to `N[C@@H](Cc1cccc(CSc2nc3ccccc3[nH]2)c1)C(=O)O` [drawing 489], the “MS Results (Aβ 1-40 binding)” value was “+ (+ = Weak (25-50% of free peptide))”.

Consider `N[C@@H](Cc1cccc(CSc2nnc(-c3ccccc3)[nH]2)c1)C(=O)O` [drawing 490], for which the “MS Results (Aβ 1-40 binding)” value is reported as “+ (+ = Weak (25-50% of free peptide))”.

In the case of `N[C@@H](Cc1cccc(CSc2nc3ccccc3[nH]2)n1)C(=O)O` [drawing 491], the “MS Results (Aβ 1-40 binding)” value is on record as “+ (+ = Weak (25-50% of free peptide))”.

In the case of `N[C@@H](Cc1cccc(CSc2ncnc3[nH]ncc23)n1)C(=O)O` [drawing 492], the “MS Results (Aβ 1-40 binding)” value is “+ (+ = Weak (25-50% of free peptide))”.

In the case of `N[C@@H](Cc1cccc(CS(=O)(=O)c2nc3ccccc3[nH]2)n1)C(=O)O` [drawing 493], the “MS Results (Aβ 1-40 binding)” value is recorded as “+ (+ = Weak (25-50% of free peptide))”.

In the case of `COc1ccc(-n2nnnc2[S+]([O-])Cc2cccc(C[C@H](N)C(=O)O)c2)cc1` (stereo partly shown) [drawing 494], the “MS Results (Aβ 1-40 binding)” value was 0.

Consider `N[C@@H](Cc1cccc(CSc2nccc(O)n2)c1)C(=O)O` [drawing 495], for which the “MS Results (Aβ 1-40 binding)” value came to 0.

In the case of `N[C@@H](Cc1cccc(C[S+]([O-])c2nnnn2-c2ccccc2)c1)C(=O)O` (stereo partly shown) [drawing 496], the “MS Results (Aβ 1-40 binding)” value is listed as “+ (+ = Weak (25-50% of free peptide))”.

As for `N[C@@H](Cc1cccc(CSc2nccc(C(F)(F)F)n2)n1)C(=O)O` [drawing 497], the “MS Results (Aβ 1-40 binding)” value is reported as “Compound insoluble”.

`N[C@@H](Cc1cccc(CSc2nc3ccc(Cl)cc3s2)n1)C(=O)O` [drawing 498]: the “MS Results (Aβ 1-40 binding)” value was “Compound Insoluble”.

Regarding `N[C@@H](Cc1cccc(CS(=O)(=O)c2nc3ccccc3[nH]2)c1)C(=O)O` [drawing 499], the “MS Results (Aβ 1-40 binding)” value is listed as “++ (++ = Moderate (50-70% of free peptide))”.

Turning to `N[C@@H](Cc1cccc(C[S+]([O-])c2nnnn2-c2ccccc2)n1)C(=O)O` (stereo partly shown) [drawing 500], the “MS Results (Aβ 1-40 binding)” value is on record as 0.

Consider `N[C@@H](Cc1cccc(CSc2nnnn2-c2ccc(O)cc2)c1)C(=O)O` [drawing 501], for which the “MS Results (Aβ 1-40 binding)” value is listed as “+ (+ = Weak (25-50% of free peptide))”.

Take `N[C@@H](Cc1cccc(CSc2nnc(-c3ccncc3)o2)c1)C(=O)O` [drawing 502]: the “MS Results (Aβ 1-40 binding)” value is “+ (+ = Weak (25-50% of free peptide))”.

`COc1ccc(-n2nnnc2[S+]([O-])Cc2cccc(C[C@H](N)C(=O)O)c2)cc1` (stereo partly shown) [drawing 503]: the “MS Results (Aβ 1-40 binding)” value was “+ (+ = Weak (25-50% of free peptide))”.

`N[C@@H](Cc1cccc(C[S+]([O-])c2nnc(-c3ccccc3)[nH]2)c1)C(=O)O` (stereo partly shown) [drawing 504]: the “MS Results (Aβ 1-40 binding)” value is 0.

As for `N[C@@H](Cc1cccc(CS(=O)(=O)c2ncc[nH]2)c1)C(=O)O` [drawing 505], the “MS Results (Aβ 1-40 binding)” value was “+ (+ = Weak (25-50% of free peptide))”.

The target in another experiment is T1, IAPP (Homo sapiens, UniProt P10997).
T1 construct: which is a 37 amino acid peptide, derived from a larger precursor peptide, called pro-IAPP
T1 sequence (P10997 34-70 limits assumed): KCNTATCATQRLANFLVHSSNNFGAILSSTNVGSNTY
Kind of experiment: Electrospray MS assay for binding to IAPP. Also on record: key to MS Results (IAPP binding), Water: 0 = None. The settings on record: 100 μM compound, 20 μM IAPP, pH 7.4, 20% ethanol in water.
Text: as §1
The binding ability between the compounds synthesized in Example 4 and IAPP in an aqueous solution is tested. The binding ability is attributed semi-quantitatively from the intensities of peptide-compound complex peaks observed in the Electrospray Mass Spectrum.
In the MS assay for IAPP, samples are prepared as both aqueous solutions and as 20% ethanol in water solutions, including 100 μM of an exemplary compound as prepared in. Example 4 and 20 μM of solubilized IAPP. The stock solution contains 30 μM IAPP and the initial pH is 3.8. Generally, IAPP precipitates out of solution at concentrations higher than 50 μM and pH higher than ˜6 as soon as a test compound is mixed with the peptide. The pH value of each sample, therefore, is adjusted to 7.4 ([…]) by addition of 0.1% aqueous sodium hydroxide. The solutions aer then analyzed by electrospray ionization mass spectrometry using a Waters ZQ 4000 mass spectrometer. Samples are introduced by direct infusion at a flow-rate of 25 μL/min within 2 hr. after sample preparation. The source temperature is kept at 70° C. and the cone voltage is 20 V for all the analysis. Data are processed using Masslynx 3.5 software. IAPP (MW 3903.4) alone at 20 μM is analyzed at pH 7.32 as a control. Sodium clusters, which are typical of this system at +3 and +4 at m/z 1301.9 and 976.7 regions, may be observed. In Table 8, a blank box means that a value was not determined for that compound in that assay.
As to `N[C@@H](Cc1cccc(C[S+]([O-])c2nnnn2-c2ccccc2)c1)C(=O)O` (stereo partly shown) [drawing 518], the “MS Results (IAPP binding), 20% Ethanol” value is “++ (++ = Moderate (30-50% of free peptide))”.

With `N[C@@H](Cc1cccc(C[S+]([O-])c2nnnn2-c2ccccc2)n1)C(=O)O` (stereo partly shown) [drawing 522], the “MS Results (IAPP binding), 20% Ethanol” value was “++ (++ = Moderate (30-50% of free peptide))”.

For `N[C@@H](Cc1cccc(CSc2nnnn2-c2ccc(O)cc2)c1)C(=O)O` [drawing 523], the “MS Results (IAPP binding), 20% Ethanol” value is “+++ (+++ = Strong (50 and higher % of free peptide))”.

Take `N[C@@H](Cc1cccc(CSc2nnc(-c3ccncc3)o2)c1)C(=O)O` [drawing 524]: the “MS Results (IAPP binding), 20% Ethanol” value is given as “+ (+ = Weak (15-30% of free peptide))”.

Consider `CN(C)CCn1nnnc1SCc1cccc(C[C@H](N)C(=O)O)c1` [drawing 525], for which the “MS Results (IAPP binding), 20% Ethanol” value is reported as “+ (+ = Weak (15-30% of free peptide))”.

The experiment is the same for the next values; noted with them: 100 μM compound, 20 μM IAPP, pH 7.4, aqueous solution.
Consider `COc1ccc(-n2nnnc2[S+]([O-])Cc2cccc(C[C@H](N)C(=O)O)c2)cc1` (stereo partly shown) [drawing 516], for which the “MS Results (IAPP binding), Water” value is given as “+ (+ = Weak (15-30% of free peptide))”.

`N[C@@H](Cc1cccc(CSc2nccc(O)n2)c1)C(=O)O` [drawing 517]: the “MS Results (IAPP binding), Water” value was 0.

As for `N[C@@H](Cc1cccc(C[S+]([O-])c2nnnn2-c2ccccc2)c1)C(=O)O` (stereo partly shown) [drawing 518], the “MS Results (IAPP binding), Water” value was “++ (++ = Moderate (30-50% of free peptide))”.

Take `N[C@@H](Cc1cccc(CSc2nccc(C(F)(F)F)n2)n1)C(=O)O` [drawing 519]: the “MS Results (IAPP binding), Water” value is “insoluble”.

As for `N[C@@H](Cc1cccc(CSc2nc3ccc(Cl)cc3s2)n1)C(=O)O` [drawing 520], the “MS Results (IAPP binding), Water” value was “+++ (+++ = Strong (50 and higher % of free peptide))”.

As to `N[C@@H](Cc1cccc(CS(=O)(=O)c2nc3ccccc3[nH]2)c1)C(=O)O` [drawing 521], the “MS Results (IAPP binding), Water” value is “+ (+ = Weak (15-30% of free peptide))”.

As to `N[C@@H](Cc1cccc(C[S+]([O-])c2nnnn2-c2ccccc2)n1)C(=O)O` (stereo partly shown) [drawing 522], the “MS Results (IAPP binding), Water” value came to 0.

For the compound `N[C@@H](Cc1cccc(CSc2nnnn2-c2ccc(O)cc2)c1)C(=O)O` [drawing 523], the “MS Results (IAPP binding), Water” value is recorded as “++ (++ = Moderate (30-50% of free peptide))”.

`N[C@@H](Cc1cccc(CSc2nnc(-c3ccncc3)o2)c1)C(=O)O` [drawing 524]: the “MS Results (IAPP binding), Water” value is recorded as “++ (++ = Moderate (30-50% of free peptide))”.

With `CN(C)CCn1nnnc1SCc1cccc(C[C@H](N)C(=O)O)c1` [drawing 525], the “MS Results (IAPP binding), Water” value is “+ (+ = Weak (15-30% of free peptide))”.

For the compound `N[C@@H](Cc1cccc(C[S+]([O-])c2nnc(-c3ccccc3)[nH]2)c1)C(=O)O` (stereo partly shown) [drawing 526], the “MS Results (IAPP binding), Water” value is recorded as 0.

On to `N[C@@H](Cc1cccc(CS(=O)(=O)c2ncc[nH]2)c1)C(=O)O` [drawing 527], for which the “MS Results (IAPP binding), Water” value was 0.

As for `N[C@@H](Cc1cccc(CSc2nnc(-c3ccncc3)[nH]2)c1)C(=O)O` [drawing 528], the “MS Results (IAPP binding), Water” value is listed as “+ (+ = Weak (15-30% of free peptide))”.
